Test results from patent EP3932918A1, “EUTECTIC CRYSTAL FORMED BY APIXABAN AND CARBOXYLIC ACID, AND PREPARATION METHOD THEREFOR” (Zhejiang Tianyu Pharmaceutical Co., Ltd., priority 2019, dated 2021).

Test: Dissolution rate test of Apixaban/carboxylic acid co-crystal (paddle method, Chinese Pharmacopoeia guidelines; equilibrium solubility in dissolution medium)
Format: physicochemical
Settings: relative to Apixaban; dissolution medium 0.1mol/L hydrochloric acid, 37±0.5°C, paddle method 100rpm, 900ml, 500 mg sample powder
Experimental: Test Example 1: Dissolution rate test of Apixaban/carboxylic acid co-crystal
According to the dissolution rate test guidelines in the current Chinese Pharmacopoeia, a dissolution rate experiment was designed to respectively investigate the dissolution rates of the five Apixaban/carboxylic acid co-crystals prepared by the present invention. The specific scheme is as follows:
Table 6 Dissolution equipment and parameters
0.1mol/L hydrochloric acid solution: 9ml of hydrochloric acid was added into 1000ml of water and stirred well.
After the dissolution conditions were reached, 500 mg of sample powder were weighed and put into a dissolution cup, rotated, and immediately counted the time, after 1, 2, 3, 4, 6, 8, 10, 12, 14, 16, 18, 20, 22 and 24 hours, sampled with a sampling needle equipped with a 10µm polymeric polyethylene filter membrane, and filtered on-line through a 0.45µm polyvinylidene fluoride (PVDF) filter membrane.

Substance | dissolution rate (times that of Apixaban)
Apixaban/D-malic acid co-crystal [crystal form II] | 1.44 times
Apixaban/malonic acid co-crystal [crystal form I] | 1.4 times
